Consider five compounds from US7034110B2, “Method of identifying chemical compounds having selected properties for a particular application” (ArQule, Inc., priority 1994, dated 2006).

Like-named read-outs stand apart in the source and are kept apart here.

For series [1] the following is noted: boiling in 6 N NaOH for 24 hrs; cited from earlier work.
The target in a further series is chymotrypsin (Bos taurus, UniProt P00766). Kind of series: competitive inhibition of chymotrypsin, standard assay using a BTEE substrate. It counts as biochemical. As for the experimental part: The set of molecules where X=CH2 was tested as competitive inhibitiors of the enzyme chymotrypsin in a standard assay using a BTEE substrate.

On to `CN(C)C.NC(=O)c1ccccc1` [trimethyl amine benzamide], for which the hydrolytic stability entry in series [1] is “unchanged”.
For `CC(O)C[N+]1([N-]C(=O)c2ccccc2)CCCCC1` (centres unmarked) [R1=Me, R2=Ph], the Ki at chymotrypsin was found to be 130 µM.
For `CC(=O)[N-][N+]1(CC(C)O)CCCCC1` (centres unmarked) [R1=Me, R2=Me], the Ki entry on chymotrypsin (competitive inhibition, BTEE substrate, set of molecules where X=CH2) is given as “not be an inhibitor”.
`O=C([N-][N+]1(CC(O)c2ccccc2)CCCCC1)c1ccccc1` (centres unmarked) [R1=Ph, R2=Ph] had a Ki on chymotrypsin of 500 µM.
Same read-out and setting: the same measure for `CC(=O)[N-][N+]1(CC(O)c2ccccc2)CCCCC1` (centres unmarked) [R1=Ph, R2=Me]: 200 µM.

In general, Ki refers to the equilibrium dissociation constant of an inhibitor or competing ligand from its target. High values mean weaker binding, low ones tighter binding.
